Experimental findings from paper PMC11866186, “Novel Benzimidazole–Oxadiazole Derivatives as Anticancer Agents with VEGFR2 Inhibitory Activity: Design, Synthesis, In Vitro Anticancer Evaluation, and In Silico Studies” (ACS Omega, 2025) are described below.

One assay deals with CCD-19Lu cell line. The assay can be described thus: MTT assay, normal lung CCD-19Lu cells. It is filed as cell-based. Conditions: CCD 19Lu, normal human lung cells, 24 h, read-out: IC50 against CCD-19Lu. The method, then:
(§1) By comparing the compounds’ cytotoxic effects against tumor cell lines and normal cell lines, the drug safety parameter for the anticancer activity of the compounds was evaluated, thereby confirming their cytoprotective qualities. In this study, normal human lung (CCD-19Lu) and normal human pancreas (hTERT-HPNE) cell lines were used as controls. The selectivity index (SI) calculated for the compounds tested scales the IC50 values of the compounds against various tumor cell lines with the IC50 values against normal cell lines (Table 2). […] The differential selectivity indices underscore the importance of targeted therapeutic strategies and the potential for these compounds to provide selective anticancer effects with reduced toxicity to normal cells.
(§2) Many analyses are performed to determine cell proliferation. MTT analysis is one of the viability determination tests. According to the working mechanism of the method, the dye containing the tetrazolium ring reacts with the dehydrogenase enzymes in the cells, only to be reduced and broken down by the metabolic cells, turning into water-insoluble formazan crystals. Color changes associated with mitochondrial activity and resulting from the addition of a solvent as a result of the reaction are measured in the microplate reader as optical density data values.[30] Cells were planted in flat-bottomed, 96-well, sterile, lidded, disposable microplates with 1 × 10^4 cells per well in 200 μL of appropriate medium and were allowed to adhere to the plate bottom by incubating for 24 h. At the end of 24 h, 100 μL of medium was withdrawn, and test substances at different concentrations, prepared in 100 μL, were added. Following the substance application, after a 24 h incubation period, 20 μL of stock MTT solution (MTT solution dissolved in 5 mg/mL PBS and filtered before application) was added to each well and protected from light, and the incubation continued for 3 h. Then, the media of the cells were completely withdrawn, and 100 μL of DMSO was added to dissolve the formazan crystals. After shaking in the dark for 15 min, the optical densities (absorbance) of the color changes at 540–570 and 650 nm reference wavelengths were read in the microplate reader. The data were calculated and created in Microsoft Office Excel. For this purpose, first, the blind well value and the control groups of colored substances were removed from the optical readings. The averages of optical densities and % viability values were made from Excel formula calculations, and the results were discussed. The viability of the control group was assumed to be 100%, and all other viability values were calculated based on this (series were run in n = 5 replicates).
On the technique in general: Formazan colour is commonly taken as a measure of viable cells.

A further assay deals with MCF-7 cell line. The assay can be described thus: MTT assay, MCF-7 cells. It is filed as cell-based, human. The note with it: Homo sapiens, MCF7, 24 h, read-out: IC50 against MCF-7. The method, then:
(§3) The synthesized compounds 4a–4s were screened for their in vitro anticancer activity via the standard MTT assay using three human tumor cell lines, namely, the human lung adenocarcinoma cell line (A549), the human breast cancer cell line (MCF-7), and the human pancreas cell line (PANC-1). Cisplatin was used as a reference drug. […] When the structures of the compounds are evaluated, it is seen that the compounds are derived from two different sources. There are hydroxyl and methoxy substituents on the phenyl ring attached to the benzimidazole. It has also been derivatized using different groups on the phenyl ring close to oxadiazole. When the activities in the PANC-1 cell line are evaluated, it is seen that the activity of compounds bearing the 2,4-dichloro substituent is especially high.
as §2

A further assay has as its system VEGFA. The assay can be described thus: VEGFA immunofluorescent staining in MCF-7 cells. The note with it: 24 h treatment, anti-VEGFA antibody, semiquantitative scoring. The format is cell-based, human. An excerpt:
An endogenous angiogenic growth factor called VEGFA primarily promotes the migration and proliferation of vascular endothelial cells.[2] Fluorescent staining degrees of the MCF-7 cancer cell line, marked with an anti-VEGFA antibody and immunofluorescence technique, were compared under light microscopy (Figure 4). […] Five different areas were selected for each group. All cell nuclei seen in the selected areas are compared with those stained VEGFA positive.
For VEGFA immunofluorescent staining, cells were grown on sterile coverslips in 6-well culture dishes. The cells were purified from the medium and washed with phosphate-buffered saline (PBS) (Sigma-Aldrich, Germany). The washed cells were fixed in ph 7.4% paraformaldehyde (Merk, Germany) for 20 min at room temperature. After fixation, the cells were washed two times with PBS for 5 min. For permeability, the cells were incubated in 0.1% Triton X-100 (Sigma-Aldrich, Germany) solution for 10 min. PBS was then washed for 5 min. After washing, Ultra V Block (Thermo Scientific, PBQ180830, USA) was dropped and waited at room temperature for 30 min to prevent nonspecific binding. […] Fluorescent microscopy (Olympus BX51, Japan) was employed by using suitable filters for fluorescence examination and then by making a registration.

Another assay has as its system hTERT-HPNE cell line. The assay can be described thus: MTT assay, normal pancreas hTERT-HPNE cells. It is filed as cell-based. Conditions: normal human pancreas cells, 24 h, read-out: IC50 against hTERT-HPNE. The method, then: as §1, §2
For a further assay, the system named is A549 cell line. The experiment in a line: MTT assay, A549 cells. The format is cell-based, human. Conditions: for IC50: Homo sapiens, A549, MTT, 24 h, read-out: IC50 against A549. The method, then:
as §3, §2

Another assay relates to PANC-1 cell line. The assay can be described thus: MTT assay, PANC-1 cells. It is filed as cell-based, human. The note with it: for IC50: MTT, 24 h, read-out: IC50 against PANC-1. The method, then:
Cisplatin was used as a reference drug. […] There are hydroxyl and methoxy substituents on the phenyl ring attached to the benzimidazole. It has also been derivatized using different groups on the phenyl ring close to oxadiazole.
as §2

In another assay the target is T1, VEGFR2 (Homo sapiens, UniProt P35968).
T1 construct: purchased
The assay can be described thus: VEGFR2 Kinase Assay Kit inhibition. The format is biochemical. Conditions: read-out: IC50 against VEGFR2. The method, then:
The VEGFR2 Kinase Assay Kit was used for VEGFR2 inhibition. The experiment was performed in vitro according to the kit procedure.[31]

Usually IC50 stands for the concentration that inhibits the measured activity by half.

The structures appear in SMILES notation. Like-named read-outs stand apart in the source and are kept apart here.

T1 sequence (P35968 20-1356): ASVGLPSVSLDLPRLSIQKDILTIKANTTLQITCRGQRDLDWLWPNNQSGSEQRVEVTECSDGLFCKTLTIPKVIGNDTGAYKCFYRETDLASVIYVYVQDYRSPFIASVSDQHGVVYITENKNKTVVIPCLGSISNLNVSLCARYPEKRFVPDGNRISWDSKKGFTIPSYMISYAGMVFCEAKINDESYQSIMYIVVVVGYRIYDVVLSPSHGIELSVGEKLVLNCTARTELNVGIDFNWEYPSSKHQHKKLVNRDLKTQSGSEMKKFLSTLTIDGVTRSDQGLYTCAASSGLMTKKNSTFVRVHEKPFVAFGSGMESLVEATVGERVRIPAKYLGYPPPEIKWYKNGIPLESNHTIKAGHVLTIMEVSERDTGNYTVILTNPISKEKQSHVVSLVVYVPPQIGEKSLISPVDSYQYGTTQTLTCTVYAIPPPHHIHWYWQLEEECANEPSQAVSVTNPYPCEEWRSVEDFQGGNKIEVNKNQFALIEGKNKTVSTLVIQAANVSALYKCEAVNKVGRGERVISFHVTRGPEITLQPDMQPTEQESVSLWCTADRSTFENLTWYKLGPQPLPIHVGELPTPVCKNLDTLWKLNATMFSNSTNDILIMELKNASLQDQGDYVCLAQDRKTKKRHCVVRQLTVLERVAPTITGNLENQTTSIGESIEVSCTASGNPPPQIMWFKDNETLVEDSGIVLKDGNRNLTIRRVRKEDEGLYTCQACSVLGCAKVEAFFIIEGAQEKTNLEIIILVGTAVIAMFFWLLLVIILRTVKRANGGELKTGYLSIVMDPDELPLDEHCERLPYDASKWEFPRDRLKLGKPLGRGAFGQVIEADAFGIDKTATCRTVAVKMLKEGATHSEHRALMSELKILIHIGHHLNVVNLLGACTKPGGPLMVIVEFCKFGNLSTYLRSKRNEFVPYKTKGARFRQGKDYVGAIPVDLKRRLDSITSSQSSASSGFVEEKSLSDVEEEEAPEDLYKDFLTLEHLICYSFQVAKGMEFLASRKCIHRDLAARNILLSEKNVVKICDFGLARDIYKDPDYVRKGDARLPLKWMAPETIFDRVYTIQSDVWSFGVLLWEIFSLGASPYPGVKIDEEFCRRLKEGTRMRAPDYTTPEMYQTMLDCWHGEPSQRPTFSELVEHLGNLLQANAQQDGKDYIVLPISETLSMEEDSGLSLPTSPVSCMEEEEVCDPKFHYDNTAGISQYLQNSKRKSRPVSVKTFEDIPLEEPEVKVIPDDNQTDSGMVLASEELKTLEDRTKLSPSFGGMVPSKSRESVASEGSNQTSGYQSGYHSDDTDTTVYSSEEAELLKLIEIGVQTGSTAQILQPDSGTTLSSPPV

For the compound `COc1ccc(-c2nc3ccc(-c4nnc(SCC(=O)c5ccc(Cl)cc5Cl)o4)cc3[nH]2)cc1` [4r, 2-((5-(2-(4-Methoxyphenyl)-1H-benzimidazol-6-yl)-1,3,4-oxadiazol-2-yl)thio)-1-(2,4-dichlorophenyl)-ethanone], the IC50 with CCD-19Lu cell line is 800 nM; with MCF-7 cell line, 500 nM; in the assay on hTERT-HPNE cell line, 10.9 µM; with A549 cell line it was 300 nM. For the same compound, the “VEGFA immunolocalization compared with control” value with VEGFA is on record as “less VEGFA immunolocalization”.

For the compound `COc1ccc(-c2nc3ccc(-c4nnc(SCC(=O)c5ccc(O)c(O)c5)o4)cc3[nH]2)cc1` [4s, 2-((5-(2-(4-Methoxyphenyl)-1H-benzimidazol-6-yl)-1,3,4-oxadiazol-2-yl)thio)-1-(3,4-dihydroxyphenyl)-ethanone], the IC50 stood at 1300 nM in the assay on CCD-19Lu cell line; 1200 nM in the assay with MCF-7 cell line; 6.7 µM in the assay with PANC-1 cell line (Homo sapiens, PANC-1, 24 h); 6.6 µM in the assay on PANC-1 cell line; 38.3 µM in the assay with hTERT-HPNE cell line; 502 ± 28 nM at VEGFR2. The IC50 in the assay on A549 cell line amounted to 1600 nM. In the assay with PANC-1 cell line (SI = cytotoxicity against hTERT-HPNE cells/cytotoxicity against PANC-1 cell line), the “Selectivity index (PANC-1)” value worked out at 5.80. Besides, the “VEGFA immunolocalization compared with control” value in the assay with VEGFA is “less VEGFA immunolocalization”. Besides, in the assay on A549 cell line (SI = cytotoxicity against CCD-19Lu cells/cytotoxicity against A549 cell line), the “Selectivity index (A549)” value came out at 0.81.
